Laboratory results reported in ChEMBL document CHEMBL1201862, “PubChem BioAssay data set” (2004).
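Briefly, cells in 96-well plates were exposed to five compound concentrations for 48 h, and endpoints were estimated by linear interpolation. At the GI50, growth is halved.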 Activity calls are given as the source filed them. Rule as the data show it: active = GI50 up to about 1.1 µM and inactive = higher.

Tests used:
Test in all cases: inhibition of tumour cell growth, NCI panel, 48 h
[1] = tested on: SN12C
[2] = tested on: XF498
[3] = tested on: RXF 631
[4] = tested on: NCI-H460
[5] = tested on: CAKI-1
[6] = tested on: HOP-62
[7] = tested on: SNB-19
[8] = tested on: KM12
[9] = tested on: UO-31
[10] = tested on: A498
[11] = tested on: HOP-18
[12] = tested on: TK-10
[13] = tested on: OVCAR-8
[14] = tested on: M14
[15] = tested on: SF-268
[16] = tested on: MOLT-4
[17] = tested on: HL-60
[18] = tested on: HT-29
[19] = tested on: SK-MEL-5
[20] = tested on: NCI-H23
[21] = tested on: RXF 393
[22] = tested on: HCT-15
[23] = tested on: OVCAR-5
[24] = tested on: DLD-1
[25] = tested on: 786-0
[26] = tested on: ACHN
[27] = tested on: SNB-75
[28] = tested on: SK-OV-3
[29] = tested on: Malme-3M
[30] = tested on: RPMI-8226
[31] = tested on: SNB-78
[32] = tested on: LXFL 529
[33] = tested on: OVCAR-4
[34] = tested on: NCI-H522
[35] = tested on: SK-MEL-28
[36] = tested on: DMS-114
[37] = tested on: SF-539
[38] = tested on: CCRF-CEM
[39] = tested on: IGROV-1
[40] = tested on: A549
[41] = tested on: M19-MEL
[42] = tested on: K562
[43] = tested on: COLO 205
[44] = tested on: EKVX
[45] = tested on: U-251
[46] = tested on: OVCAR-3
[47] = tested on: KM-20L2
[48] = tested on: HCC 2998
[49] = tested on: SF-295
[50] = tested on: SW-620
[51] = tested on: NCI-H226
[52] = tested on: HCT-116
[53] = tested on: HOP-92
[54] = tested on: UACC-257
[55] = tested on: UACC-62
[56] = tested on: LOX IMVI
[57] = tested on: SR
[58] = tested on: DMS-273
[59] = tested on: SK-MEL-2

In the case of `C[C@H](OCc1ccccc1)C(=O)N1CCS(=O)(=O)N2CCC[C@@H]2C1=O`, the GI50 [1] is reported as > 100 µM (inactive), the GI50 [2] is reported as 0.746 µM (active) and the GI50 [3] is reported as > 100 µM (inactive). For the same compound, the GI50 [4] was > 100 µM (inactive), the GI50 [5] was > 100 µM (inactive) and the GI50 [6] was > 100 µM (inactive). The GI50 [7] was > 100 µM (inactive), the GI50 [8] was > 100 µM (inactive) and the GI50 [9] was > 100 µM (inactive). The GI50 [10] was > 100 µM (inactive), the GI50 [11] was > 100 µM (inactive) and the GI50 [12] was > 100 µM (inactive). For the same compound, the GI50 [13] was > 100 µM (inactive), the GI50 [14] was > 100 µM (inactive) and the GI50 [15] was > 100 µM (inactive). For the same compound, the GI50 [16] was > 100 µM (inactive), the GI50 [17] was > 100 µM (inactive) and the GI50 [18] was > 100 µM (inactive). For the same compound, the GI50 [19] was > 100 µM (inactive), the GI50 [20] was > 100 µM (inactive) and the GI50 [21] was > 100 µM (inactive). The GI50 [22] was > 100 µM, the GI50 [23] was > 100 µM (inactive) and the GI50 [24] was > 100 µM (inactive). The GI50 [25] was > 100 µM (inactive), the GI50 [26] was > 100 µM (inactive) and the GI50 [27] was > 100 µM (inactive). The GI50 [28] was > 100 µM (inactive), the GI50 [29] was > 100 µM (inactive) and the GI50 [30] was > 100 µM (inactive). For the same compound, the GI50 [31] was > 100 µM (inactive), the GI50 [32] was > 100 µM (inactive) and the GI50 [33] was > 100 µM (inactive). For the same compound, the GI50 [34] was > 100 µM (inactive), the GI50 [35] was > 100 µM (inactive) and the GI50 [36] was > 100 µM (inactive). For the same compound, the GI50 [37] was > 100 µM (inactive), the GI50 [38] was > 100 µM (inactive) and the GI50 [39] was > 100 µM (inactive). For the same compound, the GI50 [40] was > 100 µM (inactive), the GI50 [41] was > 100 µM (inactive) and the GI50 [42] was > 100 µM (inactive). For the same compound, the GI50 [43] was > 100 µM (inactive), the GI50 [44] was > 100 µM (inactive) and the GI50 [45] was > 100 µM (inactive). For the same compound, the GI50 [46] was > 100 µM (inactive), the GI50 [47] was > 100 µM (inactive) and the GI50 [48] was > 100 µM (inactive). For the same compound, the GI50 [49] was > 100 µM (inactive), the GI50 [50] was > 100 µM (inactive) and the GI50 [51] was > 100 µM (inactive). The GI50 [52] was > 100 µM (inactive), the GI50 [53] was > 100 µM (inactive) and the GI50 [54] was > 100 µM (inactive). For the same compound, the GI50 [55] was > 100 µM (inactive), the GI50 [56] was > 100 µM (inactive) and the GI50 [57] was > 100 µM (inactive).
In the case of `CN(C)c1snc2c1c(=O)n(C)c(=O)n2C`, the GI50 [1] is reported as > 100 µM (inactive), the GI50 [2] is reported as > 100 µM (inactive) and the GI50 [3] is reported as > 100 µM (inactive). The GI50 [4] was > 100 µM (inactive), the GI50 [5] was > 100 µM (inactive) and the GI50 [6] was > 100 µM (inactive). For the same compound, the GI50 [7] was > 100 µM (inactive), the GI50 [9] was > 100 µM (inactive) and the GI50 [10] was > 100 µM (inactive). For the same compound, the GI50 [11] was > 100 µM (inactive), the GI50 [12] was > 100 µM (inactive) and the GI50 [13] was > 100 µM (inactive). The GI50 [15] was > 100 µM (inactive), the GI50 [16] was > 100 µM (inactive) and the GI50 [17] was > 100 µM (inactive). The GI50 [18] was > 100 µM (inactive), the GI50 [19] was > 100 µM (inactive) and the GI50 [20] was > 100 µM (inactive). The GI50 [22] was > 100 µM, the GI50 [58] was > 100 µM (inactive) and the GI50 [23] was > 100 µM (inactive). The GI50 [24] was > 100 µM (inactive), the GI50 [25] was > 100 µM (inactive) and the GI50 [26] was > 100 µM (inactive). For the same compound, the GI50 [27] was 35.7 µM (inactive), the GI50 [28] was > 100 µM (inactive) and the GI50 [29] was > 100 µM (inactive). The GI50 [30] was > 100 µM (inactive), the GI50 [32] was > 100 µM (inactive) and the GI50 [33] was > 100 µM (inactive). The GI50 [34] was > 100 µM (inactive), the GI50 [35] was > 100 µM (inactive) and the GI50 [36] was > 100 µM (inactive). The GI50 [37] was > 100 µM (inactive), the GI50 [38] was > 100 µM (inactive) and the GI50 [39] was > 100 µM (inactive). The GI50 [40] was > 100 µM (inactive), the GI50 [41] was > 100 µM (inactive) and the GI50 [42] was > 100 µM (inactive). The GI50 [59] was > 100 µM (inactive), the GI50 [43] was > 100 µM (inactive) and the GI50 [44] was 40.1 µM (inactive). For the same compound, the GI50 [45] was > 100 µM (inactive), the GI50 [46] was > 100 µM (inactive) and the GI50 [47] was > 100 µM (inactive). The GI50 [48] was > 100 µM (inactive), the GI50 [49] was > 100 µM (inactive) and the GI50 [50] was > 100 µM (inactive). For the same compound, the GI50 [51] was 65.2 µM (inactive), the GI50 [52] was > 100 µM (inactive) and the GI50 [54] was > 100 µM (inactive). The GI50 [55] was > 100 µM (inactive) and the GI50 [56] was > 100 µM (inactive).
